pIC50: −log10 of the molar value. Where two headings read alike, the source gives them in different places.
Columns and labels:
[1] = tested on: spontaneous hypertensive rats (MHS); experiment: prevention of development of hypertension in pre-hypertensive rats, indirect tail-cuff plethysmography (SBP and HR); type: in vivo, rat; conditions: 5 week treatment, 20 mg/kg/os daily in 0.5% w/v Methocel; for SBP: controls 172+/-5.0; for HR: controls 380+/-6.3
Experimental: Systolic blood pressure (SBP) and heart rate (HR) were measured by an indirect tail-cuff plethysmographic method in […] pre-hypertensive male rats, (MHS or SHR), i.e. before hypertension onset so as to register the basal value of SBP. The rats were then subdivided in groups of 7 animals each and the groups were divided in control and treated group. The compound, suspended in 0.5% (w/v) Methocel, was orally administered daily for at least five weeks. The control group received only Methocel.
SBP and HR were measured weekly, 6 and 24 hours after the treatment.
After five weeks of treatment, when the hypertension was fully developed in the control group ([…]) a one-week wash-out was conducted in order to verify whether SBP would remain low or restored to the basal values of the control group.

Na^+, K^+ -ATPase [2] = type: biochemical; conditions: purified Na^+, hydrolysis of ^32 P-ATP
From the text: (§1) To test the affinity for the receptor site of the Na^+, K^+ -ATPase and the agonist or inhibitory activity on the enzyme, the following tests were used:
b) inhibition of the activity of the purified Na^+, K^+ -ATPase measured as % of hydrolysis of ^32 P-ATP in the presence and in the absence of the tested compound (Doucet A. et al., Am. J. Physiol., 1986, 251, F851).

Na^+, K^+ -ATPase [3] = molecular target: T1, Na^+, K^+ -ATPase (Canis lupus familiaris, UniProt P50997); experiment: displacement of specific ^3 H-oubain binding from purified Na^+, K^+ -ATPase receptor
T1 construct: from tissue
From the text: as §1
a) displacement of the specific ^3 H-oubain binding from the Na^+, K^+ -ATPase receptor purified according to Jorghensen (Jorghensen P., BBA, 1974, 356, 36) and Erdamnn (Erdmann E. et al., Arzneim. Forsh, 1984, 34, 1314);

SMILES | SBP [1] | HR [1] | Inhibitory activity -log IC50 (Na^+, K^+ -ATPase [2]) | IC50 (Na^+, K^+ -ATPase [3]; purified Na^+, K^+ -ATPase receptor, read-out: Binding ^3 H-oubain displacement -log IC50 (converted)) | pIC50 (Na^+, K^+ -ATPase [3])
CC[C@H](c1ccoc1)[C@@]1(C)CC[C@H]2[C@@H](CC[C@@H]3C[C@@H](O)CC[C@@]32C)[C@@H]1O [Comp. I-a, 17β-(3-furyl)-14,15-seco-5βandrostan-3β,14β-diol] | 155+/-4.3 mm Hg | 370+/-10.5 beats/min. |  |  | 
CC[C@H](c1ccoc1)[C@@]1(C)CC[C@H]2[C@@H](CC[C@@H]3C[C@@H](O)CC[C@@]32C)C1=O [Comp. I-c, 17β-(3-furyl)-14-oxo-14,15-seco-5β-androstan-3β-ol] |  |  | 4.3 | 6.31 µM | 
CC[C@H](C1=CC(=O)OC1)[C@@]1(C)CC[C@H]2[C@@H](CC[C@@H]3C[C@@H](O)CC[C@@]32C)C1=O [Comp. I-d, 3β-hydroxy-14-oxo-14,15-seco-5β-card-20(22)-enolide] | 156+/-4.6 mm Hg | 383+/-11.4 beats/min. | 5.6 |  | 6.70
CC[C@H](C1=CC(=O)OC1)[C@@]1(C)CC[C@H]2[C@@H](CC[C@@H]3C[C@@H](O)CC[C@@]32C)[C@@H]1O [Comp. I-e, 3β,14β-dihydroxy-14,15-seco-5β-card-20(22)-enolide] |  |  | 5.1 |  | 6.90
C[C@]12CC[C@H](O)C[C@H]1CC[C@H]1[C@H](O)[C@@](C)([C@H](CC#N)C3=CC(=O)OC3)CC[C@@H]12 [Comp. I-h, 3β,14β-dihydroxy-14,15-seco-5β-card-20(22)-enolide-15-nitrile] | 160+/-7.8 mm Hg | 377+/-10.5 beats/min. |  |  | 
CN(C)CCO/N=C/C[C@H](C1=CC(=O)OC1)[C@@]1(C)CC[C@H]2[C@@H](CC[C@@H]3C[C@@H](O)CC[C@@]32C)C1=O [Comp. I-i, 3β-hydroxy-14-oxo-14,15-seco-5β-card-20(22)-enolide-15-(2-dimethylaminoethoxy-(E)-imino)] |  |  | 4.0 |  | 5.60
CN(C)CCO/N=C\C[C@H](C1=CC(=O)OC1)[C@@]1(C)CC[C@H]2[C@@H](CC[C@@H]3C[C@@H](O)CC[C@@]32C)C1=O [Comp. I-l, 3β-hydroxy-14-oxo-14,15-seco-5β-card-20(22)-enolide-15(2-dimethylaminoethoxy-(Z)-imino)] |  |  | 4.2 |  | 5.40
C[C@]12CC[C@H](O)C[C@H]1CC[C@H]1C(=O)[C@@](C)([C@H](C/C=N/NC(=N)N)C3=CC(=O)OC3)CC[C@@H]12 [Comp. I-m, 3β-hydroxy-14-oxo-14,15-seco-5β-card-20(22)enolide-15-(E)-(guanidinoimino)] |  |  | 4.1 |  | 5.50
